For data set [1], the system named is HSV-1 (E377). Nature of the data set: CPE-inhibition assay against HSV-1 in Vero cell monolayers. The data set is classed as cell-based, herpes simplex virus, Type 1. The note with it: for EC50: read-out: MIC50; for VR: Virus Rating, VR 1.0 or greater significant, 0.5-0.9 marginal, less than 0.5 inactive; for TI: therapeutic index, MTC divided by MIC50, HSV-1 (E377). On the procedure: (§1) 2'-Deoxy-4'-thioribonucleosides were tested for antiviral activity against viruses that replicate in mammalian cells growing in cell culture. The Virus Rating (VR) is a standard weighted measurement of antiviral activity which takes into account the degree of inhibition of virus-induced cytopathogenic effects (CPE) and the degree of cytotoxicity produced by the test compound, determined by a modification of the method of Ehrlich et al, Ann. N.Y. Acad. Sci. 130, 5-16 (1965) .
(§2) The CPE-inhibition assays were designed to test seven 0.5 log10 concentrations of each compound, beginning with 320 µg/mL, against HSV in triplicate 24-hour Vero cell monolayers in 96-well tissue culture plates. To each of the replicate cell cultures were dispensed 0.1 mL of the test compound solution (or suspension) and 0.1 mL of HSV suspension (diluted in medium to yield 32 CCID50 units per 0.1 mL). Cell controls, untreated virus-infected controls and drug cytotoxicity controls were included in each assay. […] The cell monolayers were examined microscopically for drug cytotoxicity and for CPE. which was graded on a scale of 0-4 (0-100% CPE).
(§3) The VR was calculated as 0.1 of the sum of the numerical differences between the recorded CPE grade of each test well and that of the corresponding virus control in the culture plate. Numerical differences between the scores of test wells containing a drug concentration which is partially cytotoxic and their corresponding virus controls were halved.
(§4) In tests carried out by this method, a greater value of VR indicates greater antiviral activity.
(§5) The MIC50 (minimum inhibitory concentration, 50%) is the concentration of a test compound required for 50% inhibition of virus-induced cytopathogenic effect calculated by using a regression analysis program for semilog curve fitting. MTC (minimum toxic concentration) is the minimum drug concentration (µg/ml) causing any cytotoxicity. TI is the therapeutic index, calculated by dividing the minimum cytotoxic drug concentration (MTC) by the minimum inhibitory concentration, 50% (MIC50). […]

Data set [2] can be described thus: in vitro. The data set is classed as cell-based. The note with it: monkey, vero cells. On the procedure: (§6) The CPE-inhibition assays were designed to test seven 0.5 log10 concentrations of each compound, beginning with 320 µg/mL, against HSV in triplicate 24-hour Vero cell monolayers in 96-well tissue culture plates. […] Cell controls, untreated virus-infected controls and drug cytotoxicity controls were included in each assay. […] The cell monolayers were examined microscopically for drug cytotoxicity and for CPE. which was graded on a scale of 0-4 (0-100% CPE). The MIC50 (minimum inhibitory concentration, 50%) is the concentration of a test compound required for 50% inhibition of virus-induced cytopathogenic effect calculated by using a regression analysis program for semilog curve fitting. MTC (minimum toxic concentration) is the minimum drug concentration (µg/ml) causing any cytotoxicity. TI is the therapeutic index, calculated by dividing the minimum cytotoxic drug concentration (MTC) by the minimum inhibitory concentration, 50% (MIC50). […]

In data set [3] the test system is leukemia L1210 ("L1210") cells. Nature of the data set: Cytotoxicity test, cellular proliferation of L1210 cells in suspension culture. The data set is classed as cell-based. The following applies: Mus musculus, concentration decreasing cellular proliferation by 50%, 48 hour values. On the procedure:
(§7) 2'-Deoxy-4'-thioribonucleosides were tested for antitumor activity against leukemia L1210 ("L1210") cells and human epidermoid carcinoma No. 2 ("H.Ep.-2") cells.
(§8) For L1210 cells the IC50 is the concentration required to decrease cellular proliferation by 50% as compared to untreated controls. The cells were grown in suspension cultures and the number of cells present was determined at 24 and 48 hours.
(§9) In the cytotoxicity tests, the lower the IC50 value, the greater the antitumor activity. […]

Data set [4] has as its system HSV-2 (MS). Nature of the data set: CPE-inhibition assay against HSV-2 in Vero cell monolayers. The data set is classed as cell-based, herpes simplex virus, Type 2. The following applies: for VR: Virus Rating, VR 1.0 or greater significant, 0.5-0.9 marginal, less than 0.5 inactive; for EC50: read-out: MIC50. On the procedure:
as §1, §2, §3, §4, §5

Data set [5] deals with human epidermoid carcinoma No. 2 ("H.Ep.-2") cells. The data set can be described thus: Cytotoxicity test, colony formation of H.Ep.-2 cells. The following applies: HEp-2, 240 h, concentration reducing colony formation by 50%, 10 days incubation. The class given is cell-based. On the procedure: as §7
(§10) For H.Ep.-2 cells, the IC50 is the concentration required to reduce colony formation by 50% as compared to controls. One hundred cells in 10 mL of medium were placed in prescription bottles, and after 10 days incubation, the medium was decanted and the colonies were stained and counted.
as §9

Data set [6] relates to either H.Ep.-2 or L1210 cells, or both. The data set can be described thus: Cytotoxicity tests, summary statements that do not fix the cell line. The data set is classed as cell-based. The note with it: text statement on Table 2, cell line not fixed. Here is the method: as §7, §8, §10, §9
Data set [7] has as its system Vero cell monolayers. Nature of the data set: in vitro. The data set is classed as cell-based. The note with it: monkey, vero cells. On the procedure:
as §6

Where [8] appears, read: Human alphaherpesvirus 1, 50% inhibition of virus-induced cytopathogenic effect, HSV-1 (E377), Vero cells, unit not given for MIC50 (MTC in µg/ml, TI = MTC/MIC50).

The values that follow come from patent publication EP0491793B1, “2'-DEOXY-4'-THIORIBONUCLEOSIDES AS ANTIVIRAL AND ANTICANCER AGENTS” (Southern Research Institute, priority 1989, dated 1991).

The structures appear in SMILES notation. Converted amounts (≈) assume the structure as drawn. Read-outs that look alike come from different tables or passages of the source.

The term IC50 denotes the midpoint of a concentration-inhibition curve.

`Cc1cn([C@H]2C[C@H](O)[C@@H](CO)S2)c(=O)[nH]c1=O` [1-(2'-Deoxy-4'-thio-β-D-ribofuranosyl)thymine]: in data set [1] (setting [8]), the EC50 stood at 0.8 mg/L (≈ 3.1 µM). Further, the VR in data set [1] (HSV-1 (E377), Vero cells) amounted to 1.3; in data set [4] (HSV-2 (MS), Vero cells), 0.1. Further, in data set [1], the TI is on record as 3.2 -. In addition, the MCC in data set [2] worked out at 2.6 µg/mL. Besides, the IC50 is 0.025 mg/L (≈ 0.0968 µM) in data set [3], 0.075 mg/L (≈ 0.29 µM) in data set [5] and below 1 mg/L in data set [6].

On to `Cc1cn([C@@H]2C[C@H](O)[C@@H](CO)S2)c(=O)[nH]c1=O` [1-(2-Deoxy-4-thio-α-D-ribofuranosyl)-thymine], for which the EC50 in data set [1] (setting [8]) was found to be 100 mg/L (≈ 388 µM). Also, the VR in data set [1] (HSV-1 (E377), Vero cells) came to 1.4; in data set [4] (HSV-2 (MS), Vero cells), 0.3. Further, the “antiviral activity against herpes simplex Type 1” value in data set [1] (statement in words on the tests of Table 1) is listed as “definite antiviral activity”. The TI in data set [1] is 2.3 -. Further, in data set [7], the MIC was >257.2 >257.2 µg/ml. The MCC in data set [2] was above 257 µg/mL. Also, the IC50 in data set [3] is 20 mg/L (≈ 77.4 µM); in data set [5] it was 2.7 mg/L (≈ 10.5 µM).

With `Nc1nc2c(ncn2COCCO)c(=O)[nH]1` [Acyclovir, reference compound], the EC50 was 0.5 mg/L (≈ 2.22 µM) in data set [1] (setting [8]) and 3.6 mg/L (≈ 16 µM) in data set [4] (Human alphaherpesvirus 2, 50% inhibition of virus-induced cytopathogenic effect, HSV-2 (MS), Vero cells, unit not given for MIC50 (MTC in µg/ml, TI = MTC/MIC50)). Moreover, the VR in data set [1] (HSV-1 (E377), Vero cells) was 6.7; in data set [4] (HSV-2 (MS), Vero cells), 4.8. In data set [1], this compound came in with a TI above 441. For the same compound, the MIC in data set [7] is >225.2 >225.2 µg/ml. For the same compound, the MCC in data set [2] was above 225 µg/mL.

Consider `Nc1ncnc2c1ncn2[C@@H]1O[C@H](CO)[C@@H](O)[C@@H]1O` [Ara-A, 9-β-D-arabinofuranosyladenine, reference compound], for which the EC50 in data set [1] (Human alphaherpesvirus 1, Vero) stood at 15.2 mg/L (≈ 56.9 µM); in data set [4] (Human alphaherpesvirus 2, Vero), 39.3 mg/L (≈ 147 µM). In addition, the VR was determined as 1.8 in data set [1] (HSV-1 (E377), Vero cells) and 1.1 in data set [4] (HSV-2 (MS), Vero cells). Besides, the TI in data set [1] is recorded as 5.6; in data set [4] (therapeutic index, MTC divided by MIC50, HSV-2 (MS)), 2.2. The MCC in data set [2] is 84.8 µg/mL.
